From patent US9271971B2, “Pyrido[3,4-B]indoles and methods of use” (Medivation Technologies, Inc., priority 2009, dated 2016)

Tests used:
[1] = target: T1, human recombinant adrenergic α1D receptor (Homo sapiens, UniProt P25100); assay: Adrenergic α1D radioligand binding assay; details: 1 μM, [3H]Prozosin specific binding; for inhibition at 1 µM: read-out: Percent Inhibition of ligand binding, Adrenergic (1 μM ligand conc.) α1D
T1 construct: expressed in transfected cells; host or cells: human embryonic kidney (HEK-293) cells
T1 sequence (P25100 1-572): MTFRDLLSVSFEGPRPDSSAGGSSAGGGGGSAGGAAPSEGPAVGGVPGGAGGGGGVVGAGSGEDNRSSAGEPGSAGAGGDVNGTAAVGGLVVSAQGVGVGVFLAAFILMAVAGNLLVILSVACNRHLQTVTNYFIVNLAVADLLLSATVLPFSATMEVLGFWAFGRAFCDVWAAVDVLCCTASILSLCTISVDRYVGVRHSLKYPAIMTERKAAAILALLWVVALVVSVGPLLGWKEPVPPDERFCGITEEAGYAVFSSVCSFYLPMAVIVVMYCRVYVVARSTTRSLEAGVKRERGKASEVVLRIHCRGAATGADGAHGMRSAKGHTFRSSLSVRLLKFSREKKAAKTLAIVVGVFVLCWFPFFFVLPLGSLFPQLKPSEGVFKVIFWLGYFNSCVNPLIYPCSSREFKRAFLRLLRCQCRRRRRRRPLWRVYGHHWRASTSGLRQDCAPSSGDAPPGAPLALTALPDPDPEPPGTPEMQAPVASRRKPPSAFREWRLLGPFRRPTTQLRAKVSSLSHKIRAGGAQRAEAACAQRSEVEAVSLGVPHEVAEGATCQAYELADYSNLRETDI
Protocol: To evaluate in radioligand binding assays the activity of compounds of the invention, human recombinant adrenergic α1D receptor expressed in human embryonic kidney (HEK-293) cells [Kenny, B. A. et al. Br. J. Pharmacol. (1995), 115(6):981] in a 50 mM Tris-HCl buffer, pH 7.4, was used. Compounds of invention were incubated with 0.6 nM [^3H]Prozosin for 60 min. at 25° C. Non-specific binding was estimated in the presence of 10 μM phentolamine. Receptor proteins were filtered and washed, the filters were then counted to determine [^3H]Prozosin specifically bound. Compounds were screened at 1 μM or lower, using 1% DMSO as vehicle. Compounds of the invention were tested in this biochemical assay. Biochemical assay results for representative compounds were presented as the percent inhibition of specific binding in Table 3.

[2] = target: human recombinant dopamine D2L receptor (Homo sapiens, UniProt P14416); assay: Dopamine D2L radioligand binding assay; details: [3H]Spiperone specific binding; for inhibition at 1 µM: read-out: Percent Inhibition of ligand binding, Dopamine (1 μM ligand conc.) D2L
Protocol: To evaluate in radioligand binding assays the activity of compounds of the invention, human recombinant dopamine D2L receptor expressed in Chinese hamster ovary (CHO) cells [Grandy, D. K. et al. Proc. Natl. Acad. Sci. USA. (1989), 86:9762; Hayes, G. et al., Mol. Endocrinol. (1992), 6:920] in a modified Tris-HCl buffer (50 mM Tris-HCl, pH 7.4, 1.4 mM Ascorbic Acid, 0.001% BSA, 150 mM NaCl) was used. Compounds of the invention were incubated with 0.16 nM [^3H]Spiperone for 120 min. at 25° C. Non-specific binding was estimated in the presence of 10 μM Haloperidol. Receptor proteins were filtered and washed, the filters were then counted to determine [^3H]Spiperone specifically bound. Compounds were screened at 1 μM or lower, using 1% DMSO as vehicle. Biochemical assay results are presented as the percent inhibition of specific binding in Table 3.

[3] = target: human recombinant serotonin (5-Hydroxytryptamine) 5-HT7 receptor (Homo sapiens, UniProt P34969); assay: Serotonin 5-HT7 radioligand binding assay; details: [3H]LSD specific binding; for inhibition at 1 µM: read-out: Percent Inhibition of ligand binding, Serotonin (1 μM ligand concentration) 5-HT7
Protocol: To evaluate in radioligand binding assays the activity of compounds of the invention, human recombinant serotonin (5-Hydroxytryptamine) 5-HT7 receptor expressed in Chinese hamster ovary (CHO) cells [Roth, B. L. et al., J. Pharmacol. Exp. Ther. (1994), 268:1403; Shen, Y. et al., J. Biol. Chem. (1993), 268:18200] in a modified Tris-HCl buffer (50 mM Tris-HCl, pH 7.4, 10 mM MgCl2, 0.5 mM EDTA) was used. Compounds of invention were incubated with 5.5 nM [^3H] Lysergic acid diethylamide (LSD) for 2 h at 25° C. Non-specific binding was estimated in the presence of 10 μM Serotonin (5-HT). Receptor proteins were filtered and washed, the filters were then counted to determine [^3H]LSD specifically bound. Compounds were screened at 1 μM or lower, using 1% DMSO as vehicle. Biochemical assay results are presented as the percent inhibition of specific binding in Table 4.

Chain of human recombinant serotonin (5-Hydroxytryptamine) 5-HT7 receptor (P34969 whole entry): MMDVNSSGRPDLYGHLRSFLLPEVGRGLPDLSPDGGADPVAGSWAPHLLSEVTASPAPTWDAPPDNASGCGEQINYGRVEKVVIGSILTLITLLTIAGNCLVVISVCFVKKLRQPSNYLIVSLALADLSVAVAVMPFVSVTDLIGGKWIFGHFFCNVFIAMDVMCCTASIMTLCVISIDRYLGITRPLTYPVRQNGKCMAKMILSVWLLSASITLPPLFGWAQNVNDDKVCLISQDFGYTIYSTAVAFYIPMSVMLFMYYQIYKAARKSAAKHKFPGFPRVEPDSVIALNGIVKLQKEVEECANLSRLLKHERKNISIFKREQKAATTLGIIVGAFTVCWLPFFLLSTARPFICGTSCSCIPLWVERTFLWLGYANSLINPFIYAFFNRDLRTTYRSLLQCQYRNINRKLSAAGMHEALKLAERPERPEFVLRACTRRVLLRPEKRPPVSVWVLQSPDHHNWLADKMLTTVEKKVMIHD
Chain of human recombinant dopamine D2L receptor (P14416 whole entry): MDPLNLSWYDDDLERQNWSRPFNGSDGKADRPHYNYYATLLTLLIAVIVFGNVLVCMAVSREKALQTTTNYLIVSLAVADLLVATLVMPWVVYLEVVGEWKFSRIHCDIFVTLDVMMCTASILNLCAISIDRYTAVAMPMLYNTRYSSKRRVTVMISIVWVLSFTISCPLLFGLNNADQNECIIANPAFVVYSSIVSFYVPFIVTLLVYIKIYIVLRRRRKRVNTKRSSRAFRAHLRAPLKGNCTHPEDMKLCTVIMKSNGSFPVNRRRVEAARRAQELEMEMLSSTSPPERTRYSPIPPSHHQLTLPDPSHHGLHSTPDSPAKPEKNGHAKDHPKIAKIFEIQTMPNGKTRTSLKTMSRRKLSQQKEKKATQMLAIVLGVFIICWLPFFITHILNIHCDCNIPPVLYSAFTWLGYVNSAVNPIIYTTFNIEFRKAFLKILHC

Cc1ccc2c(c1)c1c(n2CC(=O)N(C)C)CN2CCC1C2 (stereo not shown) [Compound 27]
inhibition at 1 µM [1]: 9%
inhibition at 1 µM [2]: 11%

C=C(Cn1c2c(c3cc(C)ccc31)C1CCN(C2)C1)c1ccc(F)cc1 (stereo not shown) [Compound 3]
inhibition at 1 µM [1]: 93%
Percent Inhibition of ligand binding, Dopamine (1 μM ligand conc.) D2L [2]: 21%
inhibition at 1 µM [2]: 12%

Cc1ccc2c(c1)c1c(n2CC(=O)NC2CCCCC2)CN2CCC1C2 (stereo not shown) [Compound 23]
inhibition at 1 µM [1]: 18%
inhibition at 1 µM [2]: 5%

Cc1ccc2c(c1)c1c(n2CC(O)c2ccc(F)cc2)CN2CCC1C2 (stereo not shown) [Compound 31]
inhibition at 1 µM [1]: 34%
inhibition at 1 µM [2]: 2%
inhibition at 1 µM [3]: 73%

C/C(=C/n1c2c(c3cc(C)ccc31)C1CCN(C2)C1)c1ccccc1F (stereo not shown) [Compound 37]
inhibition at 1 µM [2]: 5%
inhibition at 1 µM [3]: 93%

C/C(=C\n1c2c(c3cc(C)ccc31)C1CCN(C2)C1)c1ccc(F)c(F)c1 (stereo not shown) [Compound 39]
inhibition at 1 µM [2]: 0%
inhibition at 1 µM [3]: 96%

Cc1ccc2c(c1)c1c(n2CCc2nc(-c3ccccc3)cs2)CN2CCC1C2 (stereo not shown) [Compound 19]
inhibition at 1 µM [1]: 34%
inhibition at 1 µM [2]: -2%

Cc1ccc2c(c1)c1c(n2CC(C)(O)c2ccc(Cl)cc2Cl)CN2CCC1C2 (stereo not shown) [Compound 14]
inhibition at 1 µM [1]: -5%
inhibition at 1 µM [2]: 11%

Cc1ccc2c(c1)c1c(n2CC(C)(O)c2ccc(F)c(F)c2)CN2CCC1C2 (stereo not shown) [Compound 15]
inhibition at 1 µM [1]: 28%
inhibition at 1 µM [2]: 0%

Cc1ccc2c(c1)c1c(n2CCc2ccc(C)nc2)CN2CCC1C2 (stereo not shown) [Compound 12]
inhibition at 1 µM [1]: 25%
inhibition at 1 µM [2]: 0%

Cc1ccc2c(c1)c1c(n2CC(=O)N2CCCCC2)CN2CCC1C2 (stereo not shown) [Compound 7]
inhibition at 1 µM [1]: -7%
inhibition at 1 µM [2]: -3%

C/C(=C\n1c2c(c3cc(C)ccc31)C1CCN(C2)C1)c1ccc(Cl)cc1Cl (stereo not shown) [Compound 34]
Percent Inhibition of ligand binding, Adrenergic (1 μM ligand conc.) α1D [1]: 11%
Percent Inhibition of ligand binding, Dopamine (1 μM ligand conc.) D2L [2]: 0%
Percent Inhibition of ligand binding, Serotonin (1 μM ligand concentration) 5-HT7 [3]: 86%

Cc1ccc2c(c1)c1c(n2CCc2ccncc2)CN2CCC1C2 (stereo not shown) [Compound 30]
inhibition at 1 µM [1]: 40%
inhibition at 1 µM [2]: 10%
inhibition at 1 µM [3]: 95%

C/C(=C\n1c2c(c3cc(C)ccc31)C1CCN(C2)C1)c1cccnc1 (stereo not shown) [Compound 42]
inhibition at 1 µM [2]: -10%
inhibition at 1 µM [3]: 92%

Cc1ccc(/C=C/n2c3c(c4cc(C)ccc42)C2CCN(C3)C2)cc1 (stereo not shown) [Compound 10]
inhibition at 1 µM [1]: 73%
inhibition at 1 µM [2]: 18%

Cc1ccc2c(c1)c1c(n2CCc2ccc(C(F)(F)F)nc2)CN2CCC1C2 (stereo not shown) [Compound 1]
inhibition at 1 µM [1]: 51%
inhibition at 1 µM [2]: 8%

Cc1ccc2c(c1)c1c(n2CC(=O)c2ccc(F)cc2)CN2CCC1C2 (stereo not shown) [Compound 28]
inhibition at 1 µM [1]: 49%
inhibition at 1 µM [2]: 1%
inhibition at 1 µM [3]: 82%

Cc1ccc2c(c1)c1c(n2CC(=O)N2CCOCC2)CN2CCC1C2 (stereo not shown) [Compound 26]
inhibition at 1 µM [1]: 6%
inhibition at 1 µM [2]: 10%

Cc1ccc2c(c1)c1c(n2CC(C)(O)c2ccc(Cl)cc2)CN2CCC1C2 (stereo not shown) [Compound 16]
inhibition at 1 µM [1]: 24%
inhibition at 1 µM [2]: 5%

Cc1ccc2c(c1)c1c(n2C(=O)Cc2ccc(F)cc2)CN2CCC1C2 (stereo not shown) [Compound 43]
inhibition at 1 µM [2]: 11%
inhibition at 1 µM [3]: 41%

Cc1ccc2c(c1)c1c(n2CC(C)(O)c2ccc(F)cc2)CN2CCC1C2 (stereo not shown) [Compound 2]
inhibition at 1 µM [1]: 15%
inhibition at 1 µM [2]: 7%

Cc1ccc2c(c1)c1c(n2CC(=O)c2ccccc2)CN2CCC1C2 (stereo not shown) [Compound 21]
inhibition at 1 µM [1]: -4%
inhibition at 1 µM [2]: -2%

C/C(=C\n1c2c(c3cc(C)ccc31)C1CCN(C2)C1)c1ccc(Cl)c(Cl)c1 (stereo not shown) [Compound 40]
inhibition at 1 µM [2]: 6%
inhibition at 1 µM [3]: 95%

Cc1ccc2c(c1)c1c(n2CCc2cncc(F)c2)CN2CCC1C2 (stereo not shown) [Compound 9]
inhibition at 1 µM [1]: 24%
inhibition at 1 µM [2]: 9%

Cc1ccc2c(c1)c1c(n2CC(C)(O)c2ccc(F)cc2F)CN2CCC1C2 (stereo not shown) [Compound 17]
inhibition at 1 µM [1]: 19%
inhibition at 1 µM [2]: 5%

Cc1ccc2c(c1)c1c(n2CC(O)c2ccccc2)CN2CCC1C2 (stereo not shown) [Compound 4]
inhibition at 1 µM [1]: 54%
inhibition at 1 µM [2]: 3%

Cc1ccc2c(c1)c1c(n2CC(C)(O)c2ccc(Cl)c(Cl)c2)CN2CCC1C2 (stereo not shown) [Compound 13]
inhibition at 1 µM [1]: 14%
inhibition at 1 µM [2]: -2%

COc1ccc(/C(C)=C/n2c3c(c4cc(C)ccc42)C2CCN(C3)C2)cc1F (stereo not shown) [Compound 41]
inhibition at 1 µM [2]: 17%
inhibition at 1 µM [3]: 90%

Cc1ccc2c(c1)c1c(n2CC(=O)c2ccc(Cl)cc2)CN2CCC1C2 (stereo not shown) [Compound 29]
inhibition at 1 µM [1]: 42%
inhibition at 1 µM [2]: 0%
inhibition at 1 µM [3]: 81%

Cc1ccc2c(c1)c1c(n2CC(C)(O)c2ccc(F)c(Cl)c2)CN2CCC1C2 (stereo not shown) [Compound 18]
inhibition at 1 µM [1]: 1%
inhibition at 1 µM [2]: -1%

COc1ccc(C(O)Cn2c3c(c4cc(C)ccc42)C2CCN(C3)C2)cc1F (stereo not shown) [Compound 6]
inhibition at 1 µM [1]: 28%
inhibition at 1 µM [2]: -1%

Cc1ccc2c(c1)c1c(n2CCc2ccccn2)CN2CCC1C2 (stereo not shown) [Compound 11]
inhibition at 1 µM [1]: 26%
inhibition at 1 µM [2]: -6%

Cc1ccc2c(c1)c1c(n2C#Cc2ccc(Cl)cc2)CN2CCC1C2 (stereo not shown) [Compound 35]
inhibition at 1 µM [2]: -6%
inhibition at 1 µM [3]: 35%

COc1ccc(C(O)Cn2c3c(c4cc(C)ccc42)C2CCN(C3)C2)cc1OC (stereo not shown) [Compound 8]
inhibition at 1 µM [1]: 20%
inhibition at 1 µM [2]: -16%

C/C(=C\n1c2c(c3cc(C)ccc31)C1CCN(C2)C1)c1ccc(F)cc1 (stereo not shown) [Compound 22]
inhibition at 1 µM [1]: 81%
Percent Inhibition of ligand binding, Dopamine (1 μM ligand conc.) D2L [2]: 25%
inhibition at 1 µM [2]: 21%

Cc1ccc(C(C)(O)Cn2c3c(c4cc(C)ccc42)C2CCN(C3)C2)cc1 (stereo not shown) [Compound 20]
inhibition at 1 µM [1]: 29%
inhibition at 1 µM [2]: 9%

Cc1ccc(C(O)Cn2c3c(c4cc(C)ccc42)C2CCN(C3)C2)cc1 (stereo not shown) [Compound 5]
inhibition at 1 µM [1]: 34%
inhibition at 1 µM [2]: 6%

Cc1ccc2c(c1)c1c(n2CC(=O)N2CCC(C)CC2)CN2CCC1C2 (stereo not shown) [Compound 25]
inhibition at 1 µM [1]: -1%
inhibition at 1 µM [2]: 9%

Cc1ccc2c(c1)c1c(n2CC(=O)N2CCNCC2)CN2CCC1C2 (stereo not shown) [Compound 24]
inhibition at 1 µM [1]: 2%
inhibition at 1 µM [2]: -8%
